{"source": "patent US11273152B2", "about": "“TRPV2 antagonists” (Instituto de Medicina Molecular João Lobo Antunes, priority 2017, dated 2022)", "key": {"[1]": {"target": "TRPM5 (Homo sapiens, UniProt Q9NZQ8)", "sequence (Q9NZQ8 whole entry)": "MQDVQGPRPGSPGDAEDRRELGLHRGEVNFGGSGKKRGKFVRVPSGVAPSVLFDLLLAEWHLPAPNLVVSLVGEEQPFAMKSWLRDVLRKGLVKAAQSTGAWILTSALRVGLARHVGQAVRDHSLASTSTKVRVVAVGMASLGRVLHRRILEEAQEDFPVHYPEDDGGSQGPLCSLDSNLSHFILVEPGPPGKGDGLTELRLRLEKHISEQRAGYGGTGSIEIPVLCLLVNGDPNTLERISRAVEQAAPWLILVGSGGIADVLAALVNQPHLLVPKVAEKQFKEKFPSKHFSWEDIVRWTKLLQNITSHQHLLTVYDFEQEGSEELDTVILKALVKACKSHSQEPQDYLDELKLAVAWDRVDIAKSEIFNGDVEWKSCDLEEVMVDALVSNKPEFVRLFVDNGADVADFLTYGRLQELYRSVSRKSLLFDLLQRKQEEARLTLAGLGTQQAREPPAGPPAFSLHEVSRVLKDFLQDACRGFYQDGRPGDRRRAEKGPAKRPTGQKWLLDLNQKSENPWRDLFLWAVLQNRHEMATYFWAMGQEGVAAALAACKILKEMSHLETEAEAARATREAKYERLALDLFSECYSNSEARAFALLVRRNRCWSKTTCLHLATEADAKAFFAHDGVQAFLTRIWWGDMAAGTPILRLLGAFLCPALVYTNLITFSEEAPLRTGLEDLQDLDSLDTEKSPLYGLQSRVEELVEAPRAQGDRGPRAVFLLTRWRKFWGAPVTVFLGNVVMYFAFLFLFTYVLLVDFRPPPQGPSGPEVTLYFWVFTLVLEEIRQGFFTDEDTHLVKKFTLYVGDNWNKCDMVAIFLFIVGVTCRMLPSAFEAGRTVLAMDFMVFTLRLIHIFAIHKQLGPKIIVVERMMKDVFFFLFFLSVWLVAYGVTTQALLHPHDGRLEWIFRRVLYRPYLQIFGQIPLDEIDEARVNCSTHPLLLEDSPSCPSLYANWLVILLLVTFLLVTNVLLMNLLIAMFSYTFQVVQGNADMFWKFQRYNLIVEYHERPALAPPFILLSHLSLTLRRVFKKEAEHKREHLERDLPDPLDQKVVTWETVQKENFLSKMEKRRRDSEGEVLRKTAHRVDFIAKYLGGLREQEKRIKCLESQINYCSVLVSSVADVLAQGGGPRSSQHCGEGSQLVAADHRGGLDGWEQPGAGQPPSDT", "assay": "Fluorescence cell-based assay, TRPM5", "settings": "membrane potential dye, duplicate", "protocol": "(§1) The assays were performed at SB Discovery (Glasgow, UK) on a fee-for-service basis. Human TRP cells were trypsinised, counted and seeded in black, clear-bottomed 96 well plates at a density of 50,000 cells per well in 100 μL volume and incubated overnight. Next day, the cells were loaded with calcium 5 dye or membrane potential dye. TRPV1-5, TRPA1, TRPM2, TRPM3, and TRPM8 were tested using the calcium 5 dye. TRPC1, TRPC3-7, and TRPM4-5 were tested using the membrane potential dye. Both dye solutions were made up in HEPES buffered Hank's balanced salt solution (HBSS). Dye solution (90 μL) was added to the wells and incubated at 37° C. for 1 hour. Test compounds and standard inhibitors (10 μL) were then added to the wells and incubated at room temperature for 10 minutes. The plates were then placed in the flexstation and fluorescence monitored every 1.52 seconds. After 20 seconds agonist was added and the fluorescence monitored for 2 minutes at 485 nm/525 nm and 530 nm/565 nm, Ex/Em, for the calcium 5 dye and the membrane potential dye respectively. Controls-TRPV1: capsazepine; TRPV2: tranilast; TRPV3: ruthenium red; TRPV4: ruthenium red; TRPV5: Gd^3+; TRPA1, ruthenium red; TRPC1: Gd^3+; TRPC3: Pyr3; TRPC4: ML 204; TRPC5: ML 204; TRPC6: ML 204; TRPC7: SKF 96365; TRPM2: 2-APB; TRPM3: Mef acid; TRPM4: clotrimazole; TRPM5: TPPO; TRPM8: 2-APB. […]"}, "[2]": {"tested_on": "HEK293 cells", "assay": "Viability of HEK cells transiently transfected with TRPV2", "format": "cell-based, human", "protocol": "75,000 HEK293 cells were seeded in each well of a 24 well plate. The next day cells were transfected with hTRPV2-RFP plasmid (kindly gifted by Prof. Itaru Kojima, Gunma University, Japan). After incubating for 24 hours the media was changed and PL was added at 5 and 10 μM. 24 hours later cell viability was assessed using CellTitre-Blue (Promega) or Annexin V, 7-AAD staining. Transfection efficiency was assessed using flow cytometry.\n(§2) Cells were harvested from plates by washing with media (HEK293) or TrypLE express (Gibco). The media was removed after centrifugation and the cells were washed twice with binding buffer before being incubated for 30 minutes at room temperature with Annexin V-APC (eBiosciences, 1:100) and 7-AAD (Pharmigen, 1:50). Samples were diluted with binding buffer and analyzed by flow cytometry using BD LSRFortessa X-20 with FACS Diva software. Samples with single stains were used as controls."}, "[3]": {"target": "T1, human TRPV2-RFP fusion protein (Homo sapiens, UniProt Q9Y5S1)", "T1 construct": "Itaru Kojima, Gunma University; host or cells: HEK293, transient", "T1 sequence (Q9Y5S1 whole entry, the tested form may be a part)": "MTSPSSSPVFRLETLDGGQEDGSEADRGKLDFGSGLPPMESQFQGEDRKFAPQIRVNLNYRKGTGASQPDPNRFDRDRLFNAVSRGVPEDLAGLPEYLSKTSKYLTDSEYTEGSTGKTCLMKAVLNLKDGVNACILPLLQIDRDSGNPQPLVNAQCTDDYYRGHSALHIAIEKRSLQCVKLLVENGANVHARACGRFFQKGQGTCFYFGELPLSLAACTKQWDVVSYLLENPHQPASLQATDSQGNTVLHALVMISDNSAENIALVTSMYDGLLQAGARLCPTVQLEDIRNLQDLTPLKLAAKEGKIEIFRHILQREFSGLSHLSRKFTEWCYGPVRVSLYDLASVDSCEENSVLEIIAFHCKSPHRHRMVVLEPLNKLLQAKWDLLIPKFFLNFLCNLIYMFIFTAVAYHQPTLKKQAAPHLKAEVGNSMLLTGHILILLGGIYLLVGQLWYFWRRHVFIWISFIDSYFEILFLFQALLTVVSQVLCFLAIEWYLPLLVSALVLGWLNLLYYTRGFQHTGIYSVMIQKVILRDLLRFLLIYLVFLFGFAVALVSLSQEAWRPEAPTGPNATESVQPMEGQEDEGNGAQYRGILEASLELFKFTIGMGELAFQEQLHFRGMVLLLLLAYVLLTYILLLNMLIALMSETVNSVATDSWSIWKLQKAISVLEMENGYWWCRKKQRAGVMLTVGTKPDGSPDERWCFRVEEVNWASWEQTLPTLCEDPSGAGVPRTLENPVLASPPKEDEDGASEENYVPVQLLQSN", "assay": "Intracellular calcium imaging in HEK293 transfected with TRPV2-RFP", "format": "cell-based", "settings": "CBD 4 μM; 1 at 5 μM; 300 s post stimulation", "protocol": "Cells (ATCC) were grown to 50% confluency in DMEM (Gibco) supplemented with 10% FBS (Gibco), GlutaMax (Gibco), MEM and NEAA (Gibco), 4.5 g/L glucose and 0.11 g/L sodium pyruvate. Cells were seeded in μ-ibidi 8 well plates and transfected with TRPV2-RFP^34 (kindly gifted by Prof. Itaru Kojimu Gunma University, Japan). After 48 h of incubation, cells were subjected to calcium imaging. Intracellular calcium measurements were performed with Fura-2 AM (Life Technologies) and modified from previously described studies.^12 In short, 1 hour before the measurement, cells were loaded with 5 μM Fura-2-AM for 45 minutes. Cell medium was replaced by Tyrod's solution (119 mM NaCl, 5 mM KCl, 2 mM CaCl2, 2 mM MgCl2, 6 g/L glucose, 25 mM HEPES pH 7.4). Simultaneously, the respective treatment was added to the cells (final concentration of 1% DMSO (control), 5 μM piperlongumine and 10 μM tranilast) and cells were allowed to re-adjustment for 15 minutes. Fura-2 AM emissions from 340 nm and 380 nm excitation were recorded for 1 minute before TRPV2 was activated by addition of 4 μM or 20 μM cannabidiol (CBD). Image analysis was done using the MetaFluor Analyst software. The statistical analysis was performed with astatsa.com. After calcium imaging acquisition, the cells were immediately fixed with 4% paraformaldehyde for 15 min. […]"}, "[4]": {"target": "TRPM3 (Homo sapiens, UniProt Q9HCF6)", "sequence (Q9HCF6 whole entry)": "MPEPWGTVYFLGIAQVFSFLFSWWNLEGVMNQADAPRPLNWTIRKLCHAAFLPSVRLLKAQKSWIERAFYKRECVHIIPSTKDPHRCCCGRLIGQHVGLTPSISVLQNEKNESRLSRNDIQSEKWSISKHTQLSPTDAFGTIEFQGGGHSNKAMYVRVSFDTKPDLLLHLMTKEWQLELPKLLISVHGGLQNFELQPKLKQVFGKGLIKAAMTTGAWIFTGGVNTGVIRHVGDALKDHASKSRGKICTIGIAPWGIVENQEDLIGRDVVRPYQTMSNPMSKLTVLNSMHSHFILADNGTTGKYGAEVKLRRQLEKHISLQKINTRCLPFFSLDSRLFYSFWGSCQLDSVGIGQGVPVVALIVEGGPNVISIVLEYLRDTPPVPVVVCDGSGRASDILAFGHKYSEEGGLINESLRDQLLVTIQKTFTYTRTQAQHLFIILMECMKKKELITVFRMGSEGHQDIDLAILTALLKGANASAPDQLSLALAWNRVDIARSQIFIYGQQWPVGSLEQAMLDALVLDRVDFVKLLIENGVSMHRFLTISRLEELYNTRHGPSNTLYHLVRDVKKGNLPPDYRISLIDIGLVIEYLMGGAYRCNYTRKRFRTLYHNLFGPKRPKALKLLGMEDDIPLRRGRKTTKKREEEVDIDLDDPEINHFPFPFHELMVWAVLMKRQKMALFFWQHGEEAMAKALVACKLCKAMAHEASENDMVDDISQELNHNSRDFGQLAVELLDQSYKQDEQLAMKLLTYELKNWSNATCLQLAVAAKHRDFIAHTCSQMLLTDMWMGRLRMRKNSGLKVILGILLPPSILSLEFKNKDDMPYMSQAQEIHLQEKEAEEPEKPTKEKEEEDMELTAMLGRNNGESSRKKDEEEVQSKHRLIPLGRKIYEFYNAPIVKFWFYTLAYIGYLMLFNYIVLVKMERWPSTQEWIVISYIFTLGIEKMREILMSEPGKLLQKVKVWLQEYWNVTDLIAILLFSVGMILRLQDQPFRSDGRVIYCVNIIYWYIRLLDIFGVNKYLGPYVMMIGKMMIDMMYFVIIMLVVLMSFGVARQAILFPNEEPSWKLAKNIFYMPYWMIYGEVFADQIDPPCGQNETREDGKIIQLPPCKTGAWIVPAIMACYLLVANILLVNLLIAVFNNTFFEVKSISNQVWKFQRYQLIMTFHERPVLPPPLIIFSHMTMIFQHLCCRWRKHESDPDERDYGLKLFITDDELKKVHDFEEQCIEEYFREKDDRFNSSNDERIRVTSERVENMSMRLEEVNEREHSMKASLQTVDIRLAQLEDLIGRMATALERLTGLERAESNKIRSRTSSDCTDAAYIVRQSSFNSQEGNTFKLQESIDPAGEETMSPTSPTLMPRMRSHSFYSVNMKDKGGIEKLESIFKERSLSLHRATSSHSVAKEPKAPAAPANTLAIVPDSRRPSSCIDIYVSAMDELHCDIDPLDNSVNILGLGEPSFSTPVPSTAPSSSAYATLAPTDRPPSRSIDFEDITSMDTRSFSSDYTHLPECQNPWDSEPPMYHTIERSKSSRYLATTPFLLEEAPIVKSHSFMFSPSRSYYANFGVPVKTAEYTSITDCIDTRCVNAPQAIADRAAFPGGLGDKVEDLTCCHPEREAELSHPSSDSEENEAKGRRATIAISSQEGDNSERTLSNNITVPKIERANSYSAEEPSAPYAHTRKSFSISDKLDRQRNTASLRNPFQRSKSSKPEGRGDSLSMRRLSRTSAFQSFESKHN", "assay": "Fluorescence cell-based assay, TRPM3", "settings": "calcium 5 dye, duplicate", "protocol": "as §1"}, "[5]": {"target": "TRPV1 (Homo sapiens, UniProt Q8NER1)", "assay": "Fluorescence cell-based assay, TRPV1", "settings": "calcium 5 dye, duplicate", "protocol": "as §1"}, "[6]": {"target": "TRPC3 (Homo sapiens, UniProt Q13507)", "sequence (Q13507 whole entry)": "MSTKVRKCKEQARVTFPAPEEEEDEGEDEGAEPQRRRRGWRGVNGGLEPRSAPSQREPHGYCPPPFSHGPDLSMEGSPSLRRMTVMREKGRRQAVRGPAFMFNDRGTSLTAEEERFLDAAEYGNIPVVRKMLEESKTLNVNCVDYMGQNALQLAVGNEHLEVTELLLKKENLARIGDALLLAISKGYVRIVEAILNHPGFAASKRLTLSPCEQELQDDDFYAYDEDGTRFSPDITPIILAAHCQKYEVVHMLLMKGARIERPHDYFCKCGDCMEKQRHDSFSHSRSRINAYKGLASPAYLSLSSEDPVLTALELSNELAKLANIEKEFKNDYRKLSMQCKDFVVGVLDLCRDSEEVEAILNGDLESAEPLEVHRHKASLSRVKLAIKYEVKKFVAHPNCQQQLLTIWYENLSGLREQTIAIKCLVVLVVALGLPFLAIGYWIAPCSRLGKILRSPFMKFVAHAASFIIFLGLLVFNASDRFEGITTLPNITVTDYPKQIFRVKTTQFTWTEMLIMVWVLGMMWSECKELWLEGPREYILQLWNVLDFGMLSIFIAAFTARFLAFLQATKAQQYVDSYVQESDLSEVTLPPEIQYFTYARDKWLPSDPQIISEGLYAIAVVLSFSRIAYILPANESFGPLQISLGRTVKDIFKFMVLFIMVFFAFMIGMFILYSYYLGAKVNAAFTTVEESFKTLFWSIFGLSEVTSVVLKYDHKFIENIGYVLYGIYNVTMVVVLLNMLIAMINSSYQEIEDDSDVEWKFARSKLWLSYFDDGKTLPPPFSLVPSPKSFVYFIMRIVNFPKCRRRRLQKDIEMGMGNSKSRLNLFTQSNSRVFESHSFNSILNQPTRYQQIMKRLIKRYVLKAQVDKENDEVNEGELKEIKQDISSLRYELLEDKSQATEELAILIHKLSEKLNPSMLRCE", "assay": "Fluorescence cell-based assay, TRPC3", "settings": "membrane potential dye, duplicate", "protocol": "as §1"}, "[7]": {"tested_on": "NCI-60 cancer cell lines", "assay": "NCI-60 Human Tumor Cell Lines Screen", "format": "cell-based", "settings": "Gl50 and IC50 -z scores; five concentrations", "protocol": "Piperlongumine was submitted to the NCI-60 Human Tumor Cell Lines Screen and its activity was measured at five concentration levels (0.01, 0.1, 1, 10 and 100 μM) in 59 NCI-60 cell lines with four dose response parameters (Gl50, IC50, LC50 and TGI). The TRPV2 normalized gene expression (averaged probe intensities combined from five microarray platforms) in NCI-60 cell lines was downloaded from the CellMiner database ^36,37. The Spearman correlation was used to test the interdependence between TRPV2 expression levels and piperlongumine IC50 values against 57 cancer cell lines."}, "[8]": {"tested_on": "U251 cells", "assay": "Toxicity assay (CellTiter-Blue), U251", "format": "cell-based", "settings": "24, 48 and 72 hours; various concentrations", "protocol": "(§3) 5,000 cells/well were seeded in 96 well plates with DMEM containing 2% FBS. The next day piperlongumine was added at various concentrations. […] At 24, 48 and 72 hours the media was removed and replaced with CellTiter-Blue (Promega, 1:20 in media). The plate was incubated for 90 minutes before measuring fluorescence intensity."}, "[9]": {"tested_on": "PC3 cell line", "assay": "Cell viability, PC3", "format": "cell-based", "settings": "5 and 10 μM, 24 hours", "protocol": "as §3"}, "[10]": {"target": "TRPM2 (Homo sapiens, UniProt O94759)", "assay": "Fluorescence cell-based assay, TRPM2", "settings": "calcium 5 dye, duplicate", "protocol": "as §1"}, "[11]": {"tested_on": "U251 cells", "assay": "Viability of U251 cells transiently over-expressing hTRPV2", "format": "cell-based, human", "settings": "5 μM PL, 24 hours, p=0.0002, n=9, listed as PL", "protocol": "50,000 U251 cells were seeded in each well of a 24 well plate. The next day cells were transfected with hTRPV2-RFP plasmid. After incubating for 48 hours the media was changed and PL was added at 5 and 10 μM. 24 hours later cell viability was assessed using CellTitre-Blue (Promega). Transfection efficiency was assessed using flow cytometry.\nas §2"}, "[12]": {"target": "TRPV4 (Homo sapiens, UniProt Q9HBA0)", "assay": "Fluorescence cell-based assay, TRPV4", "settings": "calcium 5 dye, duplicate", "protocol": "as §1"}}, "note": "“Also recorded” adds a separate entry of the source."}
{"smiles": "COc1cc(/C=C/C(=O)N2CCC=CC2=O)cc(OC)c1OC", "note": "[Compound 1, piperlongumine]", "values": [{"measurement": "IC50", "setting": "[1]", "result": "> 100", "unit": "µM"}, {"measurement": "Viability of TRPV2-transfected cells vs non-transfected controls", "setting": "[2]", "result": "identical result"}, {"measurement": "Inhibition of CBD evoked calcium influx in transfected HEK293 cells", "setting": "[3]", "result": "significant difference between control and 1 (p<0.001)"}, {"measurement": "IC50", "setting": "[4]", "result": "> 100", "unit": "µM"}, {"measurement": "IC50", "setting": "[5]", "result": "> 100", "unit": "µM"}, {"measurement": "IC50", "setting": "[6]", "result": "> 100", "unit": "µM"}, {"measurement": "Anti-proliferative activity across NCI-60, most sensitive tissues", "setting": "[7]", "result": "blood, colon and skin cancer cell lines were found to be the most sensitive"}, {"measurement": "Sensitivity of U251 cells", "setting": "[8]", "result": "sensitive to PL in a dose- and time-dependent manner"}, {"measurement": "Cell viability", "setting": "[9]", "result": "cell viability was compromised"}, {"measurement": "IC50", "setting": "[10]", "result": "> 100", "unit": "µM"}, {"measurement": "Viability of hTRPV2-transfected cells vs non-transfected controls", "setting": "[11]", "result": "reduced viability compared to the non-transfected controls; also recorded: increases PL toxicity"}, {"measurement": "IC50", "setting": "[12]", "result": "> 100", "unit": "µM"}]}
